Consider 3 compounds from publication PMC9865645, “The Impact of N^ε-Acryloyllysine Piperazides on the Conformational Dynamics of Transglutaminase 2” (International Journal of Molecular Sciences, 2023).

Details of data set [1]: method as in doi:10.1039/DT9920002039, PMID 1868851. The settings on record: cited from earlier work.
For data set [2], the target named is T1, commercial His6-hTGase 2 (Homo sapiens, UniProt P21980).
T1 construct: purchased Zedira (Darmstadt, Germany) T022, lot 0716a
T1 sequence (P21980 1-687): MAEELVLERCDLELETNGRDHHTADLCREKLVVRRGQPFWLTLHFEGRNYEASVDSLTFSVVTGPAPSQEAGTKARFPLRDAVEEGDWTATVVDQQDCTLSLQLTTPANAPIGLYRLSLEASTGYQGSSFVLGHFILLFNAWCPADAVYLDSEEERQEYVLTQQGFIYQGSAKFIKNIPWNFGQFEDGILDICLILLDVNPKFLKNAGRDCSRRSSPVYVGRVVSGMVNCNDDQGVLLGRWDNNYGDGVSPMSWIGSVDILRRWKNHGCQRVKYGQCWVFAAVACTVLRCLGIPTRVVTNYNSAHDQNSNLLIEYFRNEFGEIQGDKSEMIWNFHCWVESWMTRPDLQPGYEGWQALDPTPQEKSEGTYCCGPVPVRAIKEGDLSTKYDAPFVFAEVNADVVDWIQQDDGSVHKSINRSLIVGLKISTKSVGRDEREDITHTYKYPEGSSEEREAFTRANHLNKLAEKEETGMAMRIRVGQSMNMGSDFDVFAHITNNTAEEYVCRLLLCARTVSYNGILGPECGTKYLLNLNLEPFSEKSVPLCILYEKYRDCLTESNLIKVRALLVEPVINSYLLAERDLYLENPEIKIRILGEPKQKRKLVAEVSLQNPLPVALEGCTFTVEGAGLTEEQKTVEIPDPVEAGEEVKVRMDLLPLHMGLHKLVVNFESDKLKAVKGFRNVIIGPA
Set-up: method as in PMID 29664627. The settings on record: 5 min pre-incubation of enzyme and inhibitor; mean (SEM); previously reported; cited from earlier work.

The target of data set [3] is T2, His6-hTGase 2 (Homo sapiens, UniProt P21980).
T2 construct: purchased Zedira (Darmstadt, Germany) T022, lot 0716a
T2 sequence (P21980 1-687): T1 sequence (P21980 1-687)
Also noted: method as in PMID 29664627. The settings on record: mean (SEM); previously reported; cited from earlier work.

The target in data set [4] is T3, in-house produced N-terminally Twin-Strep-tagged hTGase 2 (Homo sapiens, UniProt P21980).
T3 construct: thrombin cleavage site (N); made in house; host or cells: E. coli BL21(DE3)
T3 sequence (P21980 1-687): T1 sequence (P21980 1-687)
Description: fluorescence anisotropy (FA)-based transamidase activity assay, in-house Twin-Strep-tagged hTGase 2. It is filed as biochemical. The settings on record: 5 min pre-incubation of enzyme and inhibitor; mean (SEM) of three experiments. An excerpt: The gene of hTGase 2 (Uniprot ID: P21980) with an N-terminal thrombin cleavage site was cloned into the pPSG-IBA105 vector containing the sequence for an N-terminal Twin-Strep-tag (IBA Lifesciences GmbH, Göttingen, Germany) to obtain the final plasmid pPSG-IBA105/TCS-hTGase 2. The plasmid construct was verified by DNA sequencing (Eurofins Genomics Germany GmbH) and then transformed into E. coli BL21(DE3) by the heat–shock method. hTGase 2-expressing E. coli cells were lysed by lysozyme treatment, and hTGase 2 was purified by affinity chromatography on an ÄKTA purifier UPC 10 FPLC equipped with a Strep-Tactin XT cartridge (GE Healthcare Europe GmbH, Freiburg, Germany). Identity and purity of self-produced hTGase 2 were verified by SDS-PAGE and Western Blot analysis, respectively. Protein concentration was determined according to Bradford. More detailed descriptions of the generation and characterization of the final plasmid construct pPSG-IBA105/TCS-hTGase 2 and the expression, purification, and characterization of the self-produced hTGase 2 protein will be published elsewhere (manuscript in preparation).
(§1) For the analysis of inhibitor 1 on self-produced hTGase 2, 2 µg/mL of the enzyme was used to guarantee comparability with the value reported by Wodtke et al., whereas all other experiments were performed with 5 µg/mL of either commercial or self-produced hTGase 2 (corresponding to 64.1 and 61.6 nM, respectively, when assuming 100% active protein). Parallel and perpendicular fluorescence intensities were measured over 1190 s in 35 s intervals (1) or over 1776 s in 48 s intervals (2, 3) and used to calculate the FA. Data of FA for the first 875 s (1) or 384 s (2, 3) were analyzed by linear regression, with slopes corresponding to enzymatic rates. Rates in the presence of inhibitor were normalized by dividing them by the respective rate in the absence of inhibitor, and normalized rates were analyzed according to Equation (S29) in Supplementary Materials to calculate values of IC50. Data analysis was performed with Microsoft Excel (Microsoft Office Professional Plus 2016, Microsoft® Corporation, USA) and GraphPad Prism version 5.03 or version 6.07 for Windows (GraphPad Software, La Jolla, CA, USA).

The target of data set [5] is T2, His6-hTGase 2. Description: fluorimetric activity assay (substrate Z-Glu(HMC)-Gly-OH) for kinact/KI. Format: biochemical. The settings on record: mean (SEM) of two to four experiments.
In data set [6] the target is T1, commercial His6-hTGase 2. Description: fluorescence anisotropy (FA)-based transamidase activity assay, commercial His6-hTGase 2. It is filed as biochemical. The settings on record: 5 min pre-incubation of enzyme and inhibitor; mean (SEM) of three experiments. The procedure: as §1
The target of a further data set is T4, hTGase 2 (Homo sapiens, UniProt P21980).
T4 construct: purchased Zedira (Darmstadt, Germany) T022, lot 0716a
T4 sequence (P21980 1-687): T1 sequence (P21980 1-687)
In words: switchSENSE dynamic mode: upward motion (relative inverse slope, friction) of hTGase 2-dsDNA lever. The settings on record: 10 µM inhibitor with 1 mM Ca^2+, 0.1% DMSO, then pure TE40; non-directed labeling. The protocol:
Prior to the measurement of the switching kinetics of the differently conjugated hTGase 2, a complementary ssDNA without the enzyme (500 nM) was hybridized to the single-stranded capture strands on the chip electrodes to obtain the reference kinetics of the dsDNA lever. In addition, to determine the impact of CaCl2 and DMSO on the movement of the bare dsDNA lever, and thus on reference kinetics, its switching behavior was investigated in TE40, TE40 + 1 mM CaCl2, TE40 + 1 mM CaCl2 + 1% DMSO or TE40 + 1 mM CaCl2 + 0.1% DMSO.
Then, the dehybridization of the reference lever occurred during a regeneration step followed by the hybridization with an ssDNA-hTGase 2 conjugate (500 nM). Thereafter, the switching kinetics was recorded. […]
The impact on the hydrodynamic drag of the hTGase 2-functionalized lever was investigated under identical conditions for the three irreversible inhibitors 1–3: At first, the switching kinetics of the dsDNA lever and the hTGase 2-dsDNA conjugates were recorded. Secondly, the switching kinetics of the hTGase 2-dsDNA conjugates during and after Ca^2+ exposure were recorded using TE40 + 1 mM CaCl2 or TE40, respectively. […] In this process, the hydrodynamic drag was analyzed during the exposure to 10 µM inhibitor (for 6 min) dissolved in TE40 + 1 mM CaCl2 + 0.1% DMSO and to TE40 afterward. […]

The structures appear in SMILES notation. Where two headings read alike, the source gives them in different places.

Turning to `Nc1nc2c(ncn2[C@@H]2O[C@H](COP(=O)(O)OP(=O)(O)OP(=O)(O)O)[C@@H](O)[C@H]2O)c(=O)[nH]1` [GTP], in data set [1], the “pK value of H2GTP^3− (γP-OH)” value was 6.5, the “pK value of H3GTP^2− (N7^+H)” value is 2.9 and the “pK value of HGTP^4− (N1H)” value is recorded as 9.6.
For `C=CC(=O)NCCCCC(NC(=O)Cc1ccccc1)C(=O)N1CCN(c2cccc(F)n2)CC1` (stereo not shown) [Compound 1], the IC50 on commercial His6-hTGase 2 [2] was 0.108 µM; in data set [4] it was 0.135 µM. Also, at His6-hTGase 2 [3], the kinact/KI is 3850 (240) ^e M^−1s^−1.
As to `C=CC(=O)NCCCCC(NC(=O)Cc1ccccc1I)C(=O)N1CCN(c2ccc(C(F)(F)F)nc2)CC1` [Compound 3, N^α-(2-Iodophenylacetyl)-N^ε-acryloyl-L-lysin-4-(2-trifluoromethyl-5-yl)piperazide], on His6-hTGase 2 [5], the kinact/KI stood at 4500 M⁻¹ s⁻¹. Further, the IC50 came out at 0.28 µM against commercial His6-hTGase 2 [6] and 0.209 µM in data set [4]. Moreover, the “friction (relative inverse slope) after removal of Ca^2+ and inhibitor ("after Ca^2+ + inhibitor")” value on hTGase 2 was “significantly higher compared to “w/o” and “after Ca^2+””.
